The source made the active and inactive calls. No cut-off for these calls is given here.
Experiments:
[1] = Vasorelaxant activity in rabbit aorta assessed as inhibition of KCl-induced contractile response at 100 uM; type: functional; details: Oryctolagus cuniculus
[2] = species: Oryctolagus cuniculus; experiment: Vasorelaxant activity in rabbit aorta assessed as inhibition of norepinephrine-induced contractile response at 100 uM; type: functional, tissue-based

COc1cc(O)cc([C@@H]2OC[C@@H]3[C@H]2C(=O)O[C@H]3c2cc(O)c(OC)c(OC)c2)c1 [GRAMINONE B]
inhibition at 100 µM [1]: 50% | Activity [2]: inactive
